In series [1] the target is T1, bovine GnRH receptor (Bos taurus, UniProt P32236).
T1 construct: membranes were prepared from bovine pituitary; from tissue; host or cells: bovine pituitary
T1 sequence (P32236 1-328): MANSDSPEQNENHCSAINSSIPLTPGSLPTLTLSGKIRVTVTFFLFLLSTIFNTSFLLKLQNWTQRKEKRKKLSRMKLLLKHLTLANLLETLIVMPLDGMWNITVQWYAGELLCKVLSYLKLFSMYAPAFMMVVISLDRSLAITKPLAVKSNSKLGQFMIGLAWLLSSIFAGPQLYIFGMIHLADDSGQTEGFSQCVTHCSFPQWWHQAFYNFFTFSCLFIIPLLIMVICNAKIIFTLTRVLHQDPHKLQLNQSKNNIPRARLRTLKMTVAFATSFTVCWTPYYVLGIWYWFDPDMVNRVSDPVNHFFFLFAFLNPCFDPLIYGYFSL
Description: Radioligand binding, 125I-GnRH-A, bovine pituitary membranes. The essentials:
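Bound label captured on 0.1% polyethyleneimine-treated GF/C filters, washed three times with PBS, counted. IC50 derived; identical set-up for every species.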

For series [2], the target named is T2, rat GnRH receptor (Rattus norvegicus, UniProt P30969).
T2 sequence (P30969 1-327): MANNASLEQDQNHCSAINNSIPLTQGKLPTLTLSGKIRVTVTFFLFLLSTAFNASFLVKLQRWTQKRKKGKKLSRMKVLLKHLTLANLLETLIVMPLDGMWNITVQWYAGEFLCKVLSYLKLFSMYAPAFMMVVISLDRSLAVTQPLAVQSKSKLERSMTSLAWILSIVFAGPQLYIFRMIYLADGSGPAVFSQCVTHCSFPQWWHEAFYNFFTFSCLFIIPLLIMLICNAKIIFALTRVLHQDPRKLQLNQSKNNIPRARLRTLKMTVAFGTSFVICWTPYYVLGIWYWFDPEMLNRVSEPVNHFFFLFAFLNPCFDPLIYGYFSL
Description: Microphysiometry, extracellular acidification rate, GGH3 cells. The format is cell-based. The protocol: These cells have been extensively characterized previously (Kaiser et al., 1997). These cells were grown in low glucose Dulbecco's modified Eagle's medium (DMEM) containing: 100U/mL penicillin/streptomycin, 0.6 g/L G418 and 10% beat-inactivated fetal bovine serum
This cell line was provided by Dr. Stuart Sealfon, Mount Sinai Medical School New York, N.Y. These cells were grown in DMEM supplemented with 0.2 g/L G418 100 U/ml penicillin/streptomycin and 10% FBS. Both GGH3 and hGnRH-R/293 cells were utilized for both for both total inositol phosphate measurement and for microphysiometry assessment of compound efficacy.
The Cytosensor®Microphysiometer (Molecular Devices, Sunnyvale, Calif.) is a real-time, noninvasive, nonradioactive semiconductor-based system for monitoring the cellular responses to various stimuli. It is based on a pH-sensitive silicon sensor, the light-addressable potentiometric sensor which forms part of a microvolume flow chamber in which cultured cells are immobilized (Pitchford et al., 1995; Parce et al., 1989; Owicki, et al. 1994).
GGH3 cells were seeded in low-buffered minimal essential media (MEM, Sigma) containing 25 mM NaCl and 0.1% BSA at a density of 500,000 cells/capsule onto the polycarbonate membrane (3 μm porosity) of cell capsule cups (Molecular Devices, Sunnyvale, Calif.). Capsule cups were transferred to sensor chambers where cells were held in close apposition to a silicon sensor within a sensor chamber, which measures small changes in pH in the microvolume of the sensor chamber. Low-buffered medium was pumped continuously across the cells at a rate of approximately 100 μl/min from one of two fluid reservoirs. A selection valve determined which reservoir from which fluid was perifused onto the cells.
The Cytosensor®Microphysiometer generates a voltage signal, which is a linear function of pH, every second. In order to measure acidification rates, flow to the sensor chamber containing the cells was periodically interrupted, allowing for excreted acidic metabolites to build up in the extracellular fluid of the cells. In these experiments, cells were maintained at 37° C. on a two minute flow cycle with cells being perfused with media for 80 seconds followed by 40 seconds in which the flow of media was stopped. During this 40 second interval, acidification rates were measured for a 30 sec interval. In this fashion, a single acidification rate was calculated every two min. The Cytosensor®Microphysiometer device contains eight such sensor units, allowing for eight simultaneous experiments to be performed. Each unit was individually programmed utilizing a computer linked to the system.
GGH3 cells were initially equilibrated in the low-buffered MEM media for a period of 30-60 min in which basal acidification rates (measured as μV/sec), in the absence of any stimuli, were monitored. When the basal rate of acidification changed by less than ten percent over a period of twenty minutes, experiments were initiated. Time course experiments were performed to determine the optimal time for agonist exposure prior to acidification rate measurement and the duration of exposure needed to obtain peak acidification responses to various agonists. From these time course experiments, it was determined that cells should be exposed to GnRH peptide agonists at least one minute prior to collection of acidification rate data. Peak acidification rates usually occurred in the first two-minute exposure cycle. In order to capture the peak response to GnRH, cells were exposed to the agonist for a total of four minutes. […] All compounds were tested in a final concentration of 1% DMSO in low-buffered MEM media described above.

Series [3] is described as follows: Metabolism rate, pmol/min/mg at 1 μM, rat male. The note with it: 1 μM compound. The format is in vitro ADME.
[4] abbreviates: means ± SE of at least three experiments performed in duplicate, read-out: Bovine IC50.
Setting [5] is: rat, readout (PI or pH) not stated.

Results on 14 compounds are retold here after US7101878B1 (Agouron Pharmaceuticals, Inc., priority 1998, dated 2006).

Structures are written as SMILES. Read-outs that look alike come from different tables or passages of the source. Where a SMILES comes first, the peptide text is derived from it. [ ]: non-standard residue; d: D form. The star is where a group is joined. dPhe(4-Cl) = N[C@H](Cc1ccc(Cl)cc1)C(=O)O; d2Nal = N[C@H](Cc1ccc2ccccc2c1)C(=O)O; Lys(iPr) = CC(C)NCCCC[C@H](N)C(=O)O; d3Pal = N[C@H](Cc1cccnc1)C(=O)O; Nicotinoyl = O=C(c1cccnc1)*

In general, IC50 refers to the midpoint of a concentration-inhibition curve.

In the case of `CC(=O)N[C@H](Cc1ccc2ccccc2c1)C(=O)N[C@H](Cc1ccc(Cl)cc1)C(=O)N[C@H](Cc1cccnc1)C(=O)N[C@@H](CO)C(=O)N[C@@H](CCCCNC(=O)c1cccnc1)C(=O)N[C@H](CCCCNC(=O)c1cccnc1)C(=O)N[C@@H](CC(C)C)C(=O)N[C@@H](CCCCNC(C)C)C(=O)N1CCC[C@H]1C(=O)N[C@H](C)C(N)=O` [Antide, reference compound] (Ac-[d2Nal][dPhe(4-Cl)][d3Pal]SK(Nicotinoyl)[dK](Nicotinoyl)L[Lys(iPr)]P[dA]-NH2), the half-maximal inhibitory concentration (IC50) in series [1] (setting [4]) is 0.15 ± 0.02 nM. `Cc1cc2c(cc1Cc1ccc(C(=O)NC[C@H]3CC[C@H](CNC(=N)N)CC3)o1)C(C)(C)CCC2(C)C` [Compound 10]: the IC50 in series [1] (setting [4]) turned out to be 1500 ± 480 nM. The same measure, in the same setting: to `Cc1cc2c(cc1Cc1ccc(C(=O)NCC3CCCC(CNc4nccc(NCC5CCCO5)n4)C3)o1)C(C)(C)CCC2(C)C` (centres unmarked) [Compound 11] belongs 320 ± 10 nM; to `Cc1cc2c(cc1Cc1ccc(C(=O)NC[C@H]3CC[C@H](C(=O)O)CC3)o1)C(C)(C)CCC2(C)C` [Compound 12], 10400 ± 3000 nM. For the compound `Cc1cnc(CNC(=O)c2ccc(Cc3cc4c(cc3C)C(C)(C)CCC4(C)C)o2)cn1` [Compound 13], the IC50 in series [1] (setting [4]) was found to be 530 ± 100 nM.

Take `COc1cccc(OC)c1NC(=O)c1ccc(Cc2cc3c(cc2C)C(C)(C)CCC3(C)C)o1` [Compound 20]: the concentration for half-maximal inhibition (IC50) in series [1] (read-out: bGnRH IC50) is 130 nM. Besides, the Kb in series [2] (setting [5]) turned out to be 9 nM. `Cc1cc2c(cc1Cc1ccc(C(=O)NCc3nc4ccccc4[nH]3)o1)C(C)(C)CCC2(C)C` [Compound 48]: in series [1] (read-out: bGnRH IC50), the IC50 was 490 nM. Besides, the “Rat male pmol/min/mg 1 μM” value in series [3] stood at 2869 pmol/min/mg. Regarding `Cc1cc2c(cc1Cc1ccc(C(=O)NCc3cccc(CNc4nccc(NCC5CCCO5)n4)c3)o1)C(C)(C)CCC2(C)C` (centres unmarked) [Compound 70], the half-maximal inhibitory concentration (IC50) in series [1] (read-out: bGnRH IC50) was found to be 43 nM. In addition, the “Rat male pmol/min/mg 1 μM” value in series [3] is reported as 2393 pmol/min/mg. In series [2] (setting [5]), the “GnRH functional (rat)” value is “Antag- onist (rat)” and the Kb was found to be 8 nM. As to `COc1cc(OC)c(NC(=O)c2ccc(Cc3cc4c(cc3C)C(C)(C)CCC4(C)C)o2)c(OC)c1` [Compound 134], the “Rat male pmol/min/mg 1 μM” value in series [3] was determined as 3909 pmol/min/mg. This compound also gave a Kb in series [2] (rat, pH (microphysiometry)) of 13 nM.

On to `Cc1cc2c(cc1Cc1ccc(C(=O)NCc3cccc(CNc4ccnc(NC[C@@H]5CCCO5)n4)c3)o1)C(C)(C)CCC2(C)C` [Compound 136], for which the “Rat male pmol/min/mg 1 μM” value in series [3] was determined as 4437 pmol/min/mg. In series [2] (GGH3 cells, one experiment), the “effect on GnRH dose-response curves, extracellular acidification rate” value is “rightward shift in the dose-response curves to GnRH without decreasing the maximum response to GnRH”. Moreover, the Kb in series [2] (rat, pH (microphysiometry)) turned out to be 8 nM. For the compound `COc1cc(OC)c(NC(=O)c2ccc(Cc3cc4c(cc3OC)C(C)(C)CCC4(C)C)o2)c(OC)c1` [Compound 169], in series [3], the “Rat male pmol/min/mg 1 μM” value came to 3320 pmol/min/mg. This compound also returned a Kb in series [2] (setting [5]) of 17 nM. The matching figures for `COc1cc(OC)c(NC(=O)c2ccc(Cc3cc4c(cc3C)C(C)(C)CCC4(C)C)o2)c(OC)c1C#N` [Compound 177]: 2930 pmol/min/mg and 9 nM. As to `COc1cc(OC)c(NC(=O)c2ccc(Cc3cc4c(cc3C)CCCC4(C)C)o2)c(OC)c1` [Compound 183], the “Rat male pmol/min/mg 1 μM” value in series [3] was 1246 pmol/min/mg. The Kb in series [2] (setting [5]) was 11 nM. The matching figures for `COc1cc(OC)c(NC(=O)c2ccc(Cc3cc(C(C)(C)C)ccc3C)o2)c(OC)c1` [Compound 200]: 595 pmol/min/mg and 0.9 nM.
